Values of other authors in patent publication US6001882A (priority 1997, dated 1999).

Columns and labels:
[1] = cited from earlier work
psoriasis = settings: systemic, with long wavelength ultraviolet light; cited from earlier work

Structure (SMILES) | conversion on exposure to visible light [1] | amelioration of psoriasis (psoriasis)
Cc1cc(O)c2c(=O)c3c(O)cc(O)c4c5c(O)cc(O)c6c(=O)c7c(O)cc(C)cc7c(c65)c(c2c1)c34 [protohypericin] | converted to hypericin upon exposure to visible light | 
C=Cc1c2[n-]c(c1C)/C=c1\[n-]/c(c(C)c1C=C)=C\c1[n-]c(c(CCC(=O)O)c1C)/C=c1\[n-]c(c(C)c1CCC(=O)O)=C2.[Sn+4] [tin-protoporphyrin] |  | effects amelioration of psoriasis in psoriatic patients
